The IC50 is the concentration at which inhibition is half-maximal.

Structures are written as SMILES.

The source of these data is BindingDB's records for patent US9175357 (University of South Carolina, 2015).

For this assay, the target named is Serine/threonine-protein kinase PLK1 (Homo sapiens, UniProt P53350). As to the kind of experiment: Fluorescent Polarization Binding Assay. Particulars: pH 8; 25 °C.
Serine/threonine-protein kinase PLK1, sequence (P53350 whole entry): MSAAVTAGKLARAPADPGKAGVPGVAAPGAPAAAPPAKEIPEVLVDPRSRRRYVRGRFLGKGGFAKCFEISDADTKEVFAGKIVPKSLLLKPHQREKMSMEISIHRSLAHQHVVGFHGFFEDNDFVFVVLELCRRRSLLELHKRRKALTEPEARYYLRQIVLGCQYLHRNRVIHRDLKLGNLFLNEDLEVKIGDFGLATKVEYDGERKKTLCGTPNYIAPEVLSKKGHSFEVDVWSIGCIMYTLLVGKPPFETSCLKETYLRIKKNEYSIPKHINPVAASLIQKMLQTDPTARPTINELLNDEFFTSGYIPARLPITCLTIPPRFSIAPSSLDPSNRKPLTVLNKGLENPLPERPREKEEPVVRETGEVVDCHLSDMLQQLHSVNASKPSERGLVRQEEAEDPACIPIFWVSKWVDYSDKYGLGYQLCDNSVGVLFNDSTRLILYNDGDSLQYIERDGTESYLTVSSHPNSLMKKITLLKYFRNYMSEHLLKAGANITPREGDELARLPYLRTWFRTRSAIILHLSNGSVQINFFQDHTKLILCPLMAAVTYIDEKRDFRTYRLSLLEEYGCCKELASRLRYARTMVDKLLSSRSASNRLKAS

Consider `CNC(=O)c1cc(CCCN2CCOCC2)n(-c2ccccc2)c1C` [US9175357, 5600], for which the IC50 is 550 µM.
